Data taken from PubChem BioAssay (NCI).
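Values below derive from 48-hour exposures of cells grown in 96-well plates, with endpoints linearly interpolated between the two concentrations bracketing the appropriate inhibition level. GI50 is the concentration that inhibits growth by half. The concentration for full growth arrest is given as TGI.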

Legend:
Test in all cases: DTP human tumour cell line panel, 48 h
[1] = test system: KM12 colon
[2] = test system: DU-145 prostate
[3] = test system: EKVX NSCLC
[4] = test system: K-562 leukemia
[5] = test system: NCI-H23 lung
[6] = test system: SNB-19 CNS
[7] = test system: UO-31 renal
[8] = test system: HL-60(TB) leukemia
[9] = test system: SW-620 colon
[10] = test system: OVCAR-8 ovarian

CC/C(=C(/c1ccc(/C=C/C(=O)O)cc1)c1ccc2[nH]ncc2c1)c1ccc(F)cc1Cl
GI50 [1]: 6.79 µM | TGI [1]: 21.5 µM | GI50 [2]: 14.4 µM | TGI [2]: 27.6 µM | GI50 [3]: 13.2 µM | TGI [3]: 32.3 µM | GI50 [4]: 12.1 µM | TGI [4]: 41 µM | GI50 [5]: 15.4 µM | TGI [5]: 37.8 µM | GI50 [6]: 12.9 µM | TGI [6]: 31.2 µM | GI50 [7]: 11.2 µM | TGI [7]: 24.7 µM | GI50 [8]: 9.3 µM | TGI [8]: 31 µM | GI50 [9]: 12 µM | TGI [9]: 28.5 µM | GI50 [10]: 14.2 µM | TGI [10]: 37.9 µM

CC(C)C/C(=N\NC(=O)c1ccncc1)c1cc(Cl)ccc1O
GI50 [1]: 0.389 µM | TGI [1]: 57.4 µM | GI50 [2]: 0.379 µM | TGI [2]: 28.9 µM | GI50 [3]: 0.312 µM | TGI [3]: 25.3 µM | GI50 [4]: 0.516 µM | TGI [4]: > 100 µM | GI50 [5]: 0.449 µM | TGI [5]: 33.5 µM | GI50 [6]: 1.66 µM | TGI [6]: > 100 µM | GI50 [7]: 0.211 µM | TGI [7]: 18.6 µM | GI50 [8]: 0.295 µM | TGI [8]: 2.26 µM | GI50 [9]: 0.677 µM | TGI [9]: > 100 µM | GI50 [10]: 0.255 µM | TGI [10]: > 49.2 µM

O=C1C2C(C(=O)N1CC[Se][Se]CCN1C(=O)C3C(C1=O)[C@H]1C=C[C@@H]3C1)[C@H]1C=C[C@@H]2C1 (stereo partly drawn)
GI50 [1]: 1.35 µM | TGI [1]: 10.2 µM | GI50 [2]: 0.555 µM | TGI [2]: 2.86 µM | GI50 [3]: 0.274 µM | TGI [3]: 0.969 µM | GI50 [4]: 1.63 µM | TGI [4]: > 38.5 µM | GI50 [5]: 0.802 µM | TGI [5]: 4.48 µM | GI50 [7]: 0.247 µM | TGI [7]: 0.964 µM | GI50 [8]: 0.209 µM | TGI [8]: 0.477 µM | GI50 [9]: 2.62 µM | TGI [9]: 7.59 µM | GI50 [10]: 0.404 µM | TGI [10]: 2.28 µM

C=C(C)[C@@H]1CC[C@]2(C(=O)n3ccnc3)CC[C@]3(C)[C@H](CC[C@@H]4[C@@]5(C)CCCNC(C)(C)[C@@H]5CC[C@]43C)[C@@H]12
GI50 [1]: 1.68 µM | TGI [1]: 3.11 µM | GI50 [2]: 1.78 µM | TGI [2]: 3.61 µM | GI50 [3]: 1.74 µM | TGI [3]: 4.1 µM | GI50 [5]: 1.78 µM | TGI [5]: 3.89 µM | GI50 [6]: 2.54 µM | TGI [6]: 6.12 µM | GI50 [7]: 1.38 µM | TGI [7]: 2.72 µM | GI50 [8]: 1.55 µM | TGI [8]: 3.47 µM | GI50 [9]: 1.68 µM | TGI [9]: 3.39 µM | GI50 [10]: 2.07 µM | TGI [10]: 3.88 µM

O=C(/C=C/c1cccc(Oc2ccc(Cl)cc2)c1)c1ccccc1
GI50 [1]: 34.9 µM | TGI [1]: 125 µM | GI50 [2]: 69.7 µM | TGI [2]: 207 µM | GI50 [3]: 104 µM | TGI [3]: 261 µM | GI50 [5]: 80.7 µM | TGI [5]: 266 µM | GI50 [6]: 35.3 µM | TGI [6]: 111 µM | GI50 [7]: 17.3 µM | TGI [7]: 34.1 µM | GI50 [8]: 23.4 µM | TGI [8]: 58.4 µM | GI50 [9]: 22.6 µM | TGI [9]: 49.4 µM | GI50 [10]: 26.9 µM | TGI [10]: 66.9 µM

Cc1ccc(-c2nc(C(Cl)Cl)nc3cc(C)nn23)cc1
GI50 [2]: 0.432 µM | TGI [2]: 2.81 µM | GI50 [3]: 2.19 µM | TGI [3]: 6.45 µM | GI50 [4]: 2.3 µM | TGI [4]: > 100 µM | GI50 [5]: 0.742 µM | TGI [5]: 2.75 µM | GI50 [6]: 2.34 µM | TGI [6]: > 100 µM | GI50 [7]: 3.38 µM | TGI [7]: > 100 µM | GI50 [8]: 1.33 µM | TGI [8]: 5.46 µM | GI50 [10]: 1.67 µM | TGI [10]: > 100 µM

O=C1c2ccccc2-c2c1c1ccc([N+](=O)[O-])cc1c(=O)n2CCCCl
GI50 [1]: > 100 µM | TGI [1]: > 100 µM | GI50 [2]: 40.4 µM | TGI [2]: > 100 µM | GI50 [3]: > 100 µM | TGI [3]: > 100 µM | GI50 [4]: 25.7 µM | TGI [4]: > 100 µM | GI50 [5]: 3.52 µM | TGI [5]: 54.1 µM | GI50 [7]: 6.4 µM | TGI [7]: > 100 µM | GI50 [8]: 52.4 µM | TGI [8]: > 100 µM | GI50 [9]: 3.12 µM | TGI [9]: > 100 µM | GI50 [10]: 72.1 µM | TGI [10]: > 100 µM
